Measured values taken from PubChem BioAssay (NCI).
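All cell lines were grown in 96-well plates and treated with compound for 48 hours. GI50 is the concentration that inhibits growth by half. The concentration for full growth arrest is given as TGI.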

What was measured:
Test in all cases: inhibition of tumour cell growth, NCI panel, 48 h
[1] = tested on: 786-0 renal
[2] = tested on: A498 renal
[3] = tested on: A549 NSCLC
[4] = tested on: ACHN renal
[5] = tested on: BT-549 breast
[6] = tested on: CAKI-1 renal
[7] = tested on: CCRF-CEM leukemia
[8] = tested on: COLO 205 colon
[9] = tested on: DU-145 prostate
[10] = tested on: EKVX NSCLC
[11] = tested on: HCC-2998 colon
[12] = tested on: HCT-116 colon
[13] = tested on: HL-60(TB) leukemia
[14] = tested on: HOP-62 NSCLC
[15] = tested on: HOP-92 NSCLC
[16] = tested on: HS 578T breast
[17] = tested on: HT29 colon
[18] = tested on: IGROV1 ovarian
[19] = tested on: K-562 leukemia
[20] = tested on: KM12 colon
[21] = tested on: M14 melanoma
[22] = tested on: MALME-3M melanoma
[23] = tested on: MCF7 breast
[24] = tested on: MDA-MB-231 breast
[25] = tested on: MDA-MB-435
[26] = tested on: MOLT-4 leukemia
[27] = tested on: NCI-H23 lung
[28] = tested on: NCI-H460 lung
[29] = tested on: NCI-H522 lung
[30] = tested on: NCI/ADR-RES ovarian
[31] = tested on: OVCAR-4 ovarian
[32] = tested on: OVCAR-5 ovarian
[33] = tested on: OVCAR-8 ovarian
[34] = tested on: PC-3 prostate
[35] = tested on: RPMI-8226 leukemia
[36] = tested on: RXF 393 renal
[37] = tested on: SF-268 CNS
[38] = tested on: SF-295 CNS
[39] = tested on: SF-539 CNS
[40] = tested on: SK-MEL-2 melanoma
[41] = tested on: SK-MEL-28 melanoma
[42] = tested on: SK-MEL-5 melanoma
[43] = tested on: SK-OV-3 ovarian
[44] = tested on: SN12C renal
[45] = tested on: SNB-19 CNS
[46] = tested on: SNB-75 CNS
[47] = tested on: SW-620 colon
[48] = tested on: T-47D breast
[49] = tested on: TK-10 renal
[50] = tested on: U251 CNS
[51] = tested on: UACC-257 melanoma
[52] = tested on: UACC-62 melanoma
[53] = tested on: UO-31 renal
[54] = tested on: HCT-15 colon
[55] = tested on: NCI-H226 lung
[56] = tested on: OVCAR-3 ovarian
[57] = tested on: SR leukemia

SMILES: C=C(C=O)[C@@H]1CC[C@]2(C(=O)O)CC[C@]3(C)C(CC[C@@H]4[C@@](C)(CCC#N)[C@H](C(=C)C=O)CC[C@]43C)[C@@H]12 (stereo partly specified)
- GI50 [1]: 1.86 µM
- TGI [1]: 3.8 µM
- GI50 [2]: 14.2 µM
- TGI [2]: 29.3 µM
- GI50 [3]: 7.29 µM
- TGI [3]: 23.9 µM
- GI50 [4]: 3.26 µM
- TGI [4]: 10.5 µM
- GI50 [5]: 1.82 µM
- TGI [5]: 3.57 µM
- GI50 [6]: 3.38 µM
- TGI [6]: 15.4 µM
- GI50 [7]: 2.78 µM
- TGI [7]: 8.75 µM
- GI50 [8]: 10.9 µM
- TGI [8]: 27.7 µM
- GI50 [9]: 3.72 µM
- TGI [9]: 12.7 µM
- GI50 [10]: 6.64 µM
- TGI [10]: 23.9 µM
- GI50 [11]: 1.93 µM
- TGI [11]: 3.81 µM
- GI50 [12]: 1.8 µM
- TGI [12]: 3.46 µM
- GI50 [13]: 2.02 µM
- TGI [13]: 7.8 µM
- GI50 [14]: 2.08 µM
- TGI [14]: 4.67 µM
- GI50 [15]: 1.37 µM
- TGI [15]: 3.55 µM
- GI50 [16]: 3.17 µM
- TGI [16]: 18.9 µM
- GI50 [17]: 1.99 µM
- TGI [17]: 4.03 µM
- GI50 [18]: 2.82 µM
- TGI [18]: 8.47 µM
- GI50 [19]: 2.76 µM
- TGI [19]: 9.34 µM
- GI50 [20]: 3.22 µM
- TGI [20]: 10.6 µM
- GI50 [21]: 1.92 µM
- TGI [21]: 4.1 µM
- GI50 [22]: 2.53 µM
- TGI [22]: 8.01 µM
- GI50 [23]: 2.9 µM
- TGI [23]: 12.1 µM
- GI50 [24]: 3.05 µM
- TGI [24]: 9.1 µM
- GI50 [25]: 3.21 µM
- TGI [25]: 11.4 µM
- GI50 [26]: 2.71 µM
- TGI [26]: 13.7 µM
- GI50 [27]: 2.13 µM
- TGI [27]: 4.87 µM
- GI50 [28]: 5.56 µM
- TGI [28]: 19.8 µM
- GI50 [29]: 2.26 µM
- TGI [29]: 6.2 µM
- GI50 [30]: 3.87 µM
- TGI [30]: 34.5 µM
- GI50 [31]: 4.22 µM
- TGI [31]: 23.5 µM
- GI50 [32]: 2.37 µM
- TGI [32]: 6.69 µM
- GI50 [33]: 2.59 µM
- TGI [33]: 7.06 µM
- GI50 [34]: 1.95 µM
- TGI [34]: 5.28 µM
- GI50 [35]: 2.63 µM
- TGI [35]: 7.26 µM
- GI50 [36]: 1.98 µM
- TGI [36]: 3.68 µM
- GI50 [37]: 6.22 µM
- TGI [37]: 26.2 µM
- GI50 [38]: 3.07 µM
- TGI [38]: 11.6 µM
- GI50 [39]: 2.91 µM
- TGI [39]: 9.31 µM
- GI50 [40]: 1.99 µM
- TGI [40]: 4.01 µM
- GI50 [41]: 2.45 µM
- TGI [41]: 6.22 µM
- GI50 [42]: 1.78 µM
- TGI [42]: 3.33 µM
- GI50 [43]: 8.49 µM
- TGI [43]: 23.1 µM
- GI50 [44]: 3.2 µM
- TGI [44]: 15.2 µM
- GI50 [45]: 3.93 µM
- TGI [45]: 18.3 µM
- GI50 [46]: 6.07 µM
- TGI [46]: 22.3 µM
- GI50 [47]: 2.18 µM
- TGI [47]: 4.79 µM
- GI50 [48]: 3.28 µM
- TGI [48]: 15.2 µM
- GI50 [49]: 3.34 µM
- TGI [49]: 13.5 µM
- GI50 [50]: 1.88 µM
- TGI [50]: 3.84 µM
- GI50 [51]: 1.8 µM
- TGI [51]: 3.88 µM
- GI50 [52]: 2 µM
- TGI [52]: 4.88 µM
- GI50 [53]: 2.5 µM
- TGI [53]: 8.02 µM

SMILES: O=C(Nc1cccc(Cl)c1)Nc1nc2ccc([N+](=O)[O-])cc2o1
- GI50 [1]: 2.49 µM
- TGI [1]: 7.77 µM
- GI50 [2]: 1.56 µM
- TGI [2]: 4.5 µM
- GI50 [3]: 3.06 µM
- TGI [3]: > 100 µM
- GI50 [4]: 3.23 µM
- TGI [4]: 12.7 µM
- GI50 [5]: 2.09 µM
- TGI [5]: 7.79 µM
- GI50 [6]: 2.17 µM
- TGI [6]: 7.56 µM
- GI50 [8]: 2.4 µM
- TGI [8]: 7.82 µM
- GI50 [9]: 3.53 µM
- TGI [9]: > 100 µM
- GI50 [10]: 2.82 µM
- TGI [10]: > 100 µM
- GI50 [11]: 3.19 µM
- TGI [11]: 48.3 µM
- GI50 [12]: 2.59 µM
- TGI [12]: 10.3 µM
- GI50 [54]: 2.46 µM
- TGI [54]: > 100 µM
- GI50 [13]: 2.09 µM
- TGI [13]: 4.99 µM
- GI50 [14]: 2.49 µM
- TGI [14]: 9.14 µM
- GI50 [15]: 1.65 µM
- TGI [15]: 6.04 µM
- GI50 [16]: 3.3 µM
- TGI [16]: 54.4 µM
- GI50 [17]: 3.08 µM
- TGI [17]: > 100 µM
- GI50 [18]: 2.83 µM
- TGI [18]: > 100 µM
- GI50 [19]: 3.02 µM
- TGI [19]: > 100 µM
- GI50 [20]: 3.17 µM
- TGI [20]: > 100 µM
- GI50 [21]: 2.54 µM
- TGI [21]: 22.8 µM
- GI50 [22]: 2.49 µM
- TGI [22]: 36 µM
- GI50 [23]: 2.82 µM
- TGI [23]: > 100 µM
- GI50 [24]: 2.67 µM
- TGI [24]: 8.54 µM
- GI50 [25]: 2.88 µM
- TGI [25]: > 100 µM
- GI50 [26]: 2.36 µM
- TGI [26]: 7.71 µM
- GI50 [55]: 2.13 µM
- TGI [55]: 5.42 µM
- GI50 [27]: 1.9 µM
- TGI [27]: 7.09 µM
- GI50 [28]: 1.74 µM
- TGI [28]: 5.88 µM
- GI50 [30]: 2.66 µM
- TGI [30]: 8.84 µM
- GI50 [56]: 2.51 µM
- TGI [56]: 11.4 µM
- GI50 [31]: 2.56 µM
- TGI [31]: > 100 µM
- GI50 [32]: 4.32 µM
- TGI [32]: > 100 µM
- GI50 [33]: 3.12 µM
- TGI [33]: > 100 µM
- GI50 [34]: 2.18 µM
- TGI [34]: 9.12 µM
- GI50 [35]: 1.48 µM
- TGI [35]: 5.02 µM
- GI50 [36]: 1.66 µM
- TGI [36]: 5.16 µM
- GI50 [37]: 3.04 µM
- TGI [37]: > 100 µM
- GI50 [38]: 1.99 µM
- TGI [38]: 6.02 µM
- GI50 [39]: 2.75 µM
- TGI [39]: 7.32 µM
- GI50 [40]: 2.09 µM
- TGI [40]: 6.11 µM
- GI50 [41]: 3.22 µM
- TGI [41]: > 100 µM
- GI50 [42]: 1.51 µM
- TGI [42]: 4.19 µM
- GI50 [43]: 2.7 µM
- TGI [43]: 8.33 µM
- GI50 [44]: 2.28 µM
- TGI [44]: 7.43 µM
- GI50 [45]: 2.79 µM
- TGI [45]: 86.5 µM
- GI50 [46]: 2.68 µM
- TGI [46]: 9.8 µM
- GI50 [57]: 2.69 µM
- TGI [57]: 7.84 µM
- GI50 [47]: 2.71 µM
- TGI [47]: > 100 µM
- GI50 [48]: 1.47 µM
- TGI [48]: 7.59 µM
- GI50 [49]: 3.5 µM
- TGI [49]: 8.43 µM
- GI50 [50]: 2.71 µM
- TGI [50]: > 100 µM
- GI50 [51]: 2.25 µM
- TGI [51]: 18.3 µM
- GI50 [52]: 1.54 µM
- TGI [52]: 4.81 µM
- GI50 [53]: 2.67 µM
- TGI [53]: 7.82 µM
